Laboratory results as given in PMC5451150 (Journal of Medicinal Chemistry, 2016).

Experiments:
[1] = molecular target: NSD1 (Homo sapiens, UniProt Q96L73); experiment: Methyltransferase selectivity panel: NSD1; format: biochemical
[2] = molecular target: NSD2 (Homo sapiens, UniProt O96028); experiment: Methyltransferase selectivity panel: NSD2; format: biochemical
[3] = molecular target: NSD2 (E1099K) (Homo sapiens, UniProt O96028, E1099K); experiment: Methyltransferase selectivity panel: NSD2 (E1099K); format: biochemical
[4] = molecular target: PRDM9 (Homo sapiens, UniProt Q9NQV7); experiment: Methyltransferase selectivity panel: PRDM9; format: biochemical
[5] = system: global H3K27me3 levels in HeLa cells; experiment: HeLa H3K27me3 mechanism of action (MOA) cellular assay; settings: for LiPE (lipophilic efficiency = pEC50 – cLogP): pEC50 from HeLa assay, cLogP ChemDraw 15.0
[6] = Plasma protein binding, mouse; format: in vitro ADME
[7] = Plasma protein binding, rat; format: in vitro ADME
[8] = Plasma protein binding, dog; format: in vitro ADME; settings: dog plasma
[9] = Plasma protein binding, human; format: in vitro ADME
[10] = Intrinsic clearance in mouse liver microsomes; format: in vitro ADME; settings: for microsomal CLint: mouse, liver microsomes
[11] = molecular target: T1, EZH2 C663S (Homo sapiens, UniProt O75530+Q15910, C663S); experiment: EZH2 C663S incorporated into reconstituted PRC2, potency; format: biochemical; settings: single substitution cysteine to serine at position 663, reconstituted PRC2
T1 construct: made in house
T1 sequence (Q15910 whole entry C663S): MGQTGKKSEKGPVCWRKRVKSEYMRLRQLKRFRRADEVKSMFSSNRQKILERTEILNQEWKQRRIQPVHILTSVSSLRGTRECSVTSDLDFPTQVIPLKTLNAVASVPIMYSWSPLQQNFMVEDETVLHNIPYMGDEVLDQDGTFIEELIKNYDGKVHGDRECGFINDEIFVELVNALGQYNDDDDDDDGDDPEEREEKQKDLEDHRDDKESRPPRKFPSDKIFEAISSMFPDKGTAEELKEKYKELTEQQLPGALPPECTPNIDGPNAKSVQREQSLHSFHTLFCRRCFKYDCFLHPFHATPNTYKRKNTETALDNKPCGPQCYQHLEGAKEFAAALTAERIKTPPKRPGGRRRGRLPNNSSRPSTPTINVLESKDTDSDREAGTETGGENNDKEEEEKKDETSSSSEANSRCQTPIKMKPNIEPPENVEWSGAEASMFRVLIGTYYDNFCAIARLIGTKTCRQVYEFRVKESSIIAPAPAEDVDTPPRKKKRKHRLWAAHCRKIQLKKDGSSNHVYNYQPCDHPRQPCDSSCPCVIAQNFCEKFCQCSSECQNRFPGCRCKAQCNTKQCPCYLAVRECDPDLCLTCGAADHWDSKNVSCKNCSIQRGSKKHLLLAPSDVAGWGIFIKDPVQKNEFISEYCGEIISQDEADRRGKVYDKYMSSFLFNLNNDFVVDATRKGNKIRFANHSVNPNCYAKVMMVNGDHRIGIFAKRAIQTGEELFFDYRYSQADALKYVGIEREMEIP
T1 sequence (O75530 whole entry): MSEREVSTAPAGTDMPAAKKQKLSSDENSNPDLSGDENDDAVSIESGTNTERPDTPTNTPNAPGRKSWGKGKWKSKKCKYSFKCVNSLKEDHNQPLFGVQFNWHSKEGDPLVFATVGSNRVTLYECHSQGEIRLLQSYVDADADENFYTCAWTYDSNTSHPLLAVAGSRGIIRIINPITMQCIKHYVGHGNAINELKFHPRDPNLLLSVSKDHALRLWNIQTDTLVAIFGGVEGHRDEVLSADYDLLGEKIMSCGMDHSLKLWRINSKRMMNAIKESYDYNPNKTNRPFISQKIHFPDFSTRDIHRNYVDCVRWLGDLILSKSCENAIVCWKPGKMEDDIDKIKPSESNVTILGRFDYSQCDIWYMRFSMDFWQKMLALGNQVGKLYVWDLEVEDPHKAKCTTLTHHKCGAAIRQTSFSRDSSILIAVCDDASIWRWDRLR
T1 sequence (Q15022 whole entry partner): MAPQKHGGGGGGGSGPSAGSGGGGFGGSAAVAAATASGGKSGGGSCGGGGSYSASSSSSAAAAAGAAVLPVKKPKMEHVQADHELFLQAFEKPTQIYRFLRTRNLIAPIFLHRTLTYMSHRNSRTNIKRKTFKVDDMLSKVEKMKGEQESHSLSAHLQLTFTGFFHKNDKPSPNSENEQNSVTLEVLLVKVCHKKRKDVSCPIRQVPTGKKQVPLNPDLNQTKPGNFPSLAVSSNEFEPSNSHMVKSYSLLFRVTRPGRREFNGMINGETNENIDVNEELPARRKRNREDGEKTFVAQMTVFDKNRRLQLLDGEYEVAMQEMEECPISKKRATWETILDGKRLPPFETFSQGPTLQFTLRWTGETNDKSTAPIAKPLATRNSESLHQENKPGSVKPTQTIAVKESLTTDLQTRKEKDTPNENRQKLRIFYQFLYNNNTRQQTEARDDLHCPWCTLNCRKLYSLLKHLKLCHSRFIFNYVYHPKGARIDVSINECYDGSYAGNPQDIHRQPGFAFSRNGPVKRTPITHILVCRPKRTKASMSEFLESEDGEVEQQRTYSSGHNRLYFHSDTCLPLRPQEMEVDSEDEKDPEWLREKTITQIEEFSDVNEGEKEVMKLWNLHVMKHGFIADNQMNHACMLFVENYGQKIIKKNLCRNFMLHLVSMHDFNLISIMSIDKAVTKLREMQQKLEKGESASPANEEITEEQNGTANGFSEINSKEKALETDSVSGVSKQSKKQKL

Sequence of PRDM9 (Q9NQV7 whole entry): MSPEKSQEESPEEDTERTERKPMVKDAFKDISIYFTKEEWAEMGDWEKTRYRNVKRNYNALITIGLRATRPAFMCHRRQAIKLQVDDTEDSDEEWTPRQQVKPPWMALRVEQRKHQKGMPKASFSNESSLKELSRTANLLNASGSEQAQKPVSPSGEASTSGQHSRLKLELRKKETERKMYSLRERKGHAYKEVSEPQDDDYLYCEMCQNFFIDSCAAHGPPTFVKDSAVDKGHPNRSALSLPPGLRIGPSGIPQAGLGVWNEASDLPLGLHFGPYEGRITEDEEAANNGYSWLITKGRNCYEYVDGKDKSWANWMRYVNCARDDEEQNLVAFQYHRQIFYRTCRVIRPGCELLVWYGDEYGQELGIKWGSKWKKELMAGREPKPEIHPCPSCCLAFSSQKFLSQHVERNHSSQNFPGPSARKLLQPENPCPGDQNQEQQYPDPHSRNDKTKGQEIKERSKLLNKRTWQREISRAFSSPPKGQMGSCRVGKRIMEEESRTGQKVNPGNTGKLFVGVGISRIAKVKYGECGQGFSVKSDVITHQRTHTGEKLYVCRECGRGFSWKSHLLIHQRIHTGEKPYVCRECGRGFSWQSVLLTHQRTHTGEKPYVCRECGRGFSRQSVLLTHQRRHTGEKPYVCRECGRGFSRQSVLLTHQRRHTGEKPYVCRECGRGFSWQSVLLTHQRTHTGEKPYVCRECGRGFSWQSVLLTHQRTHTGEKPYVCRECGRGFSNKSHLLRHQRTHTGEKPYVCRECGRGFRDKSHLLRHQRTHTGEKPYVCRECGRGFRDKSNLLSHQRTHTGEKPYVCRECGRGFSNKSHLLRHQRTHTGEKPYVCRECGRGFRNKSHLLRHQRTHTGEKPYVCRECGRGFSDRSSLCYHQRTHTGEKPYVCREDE
Sequence of NSD2 (O96028 whole entry): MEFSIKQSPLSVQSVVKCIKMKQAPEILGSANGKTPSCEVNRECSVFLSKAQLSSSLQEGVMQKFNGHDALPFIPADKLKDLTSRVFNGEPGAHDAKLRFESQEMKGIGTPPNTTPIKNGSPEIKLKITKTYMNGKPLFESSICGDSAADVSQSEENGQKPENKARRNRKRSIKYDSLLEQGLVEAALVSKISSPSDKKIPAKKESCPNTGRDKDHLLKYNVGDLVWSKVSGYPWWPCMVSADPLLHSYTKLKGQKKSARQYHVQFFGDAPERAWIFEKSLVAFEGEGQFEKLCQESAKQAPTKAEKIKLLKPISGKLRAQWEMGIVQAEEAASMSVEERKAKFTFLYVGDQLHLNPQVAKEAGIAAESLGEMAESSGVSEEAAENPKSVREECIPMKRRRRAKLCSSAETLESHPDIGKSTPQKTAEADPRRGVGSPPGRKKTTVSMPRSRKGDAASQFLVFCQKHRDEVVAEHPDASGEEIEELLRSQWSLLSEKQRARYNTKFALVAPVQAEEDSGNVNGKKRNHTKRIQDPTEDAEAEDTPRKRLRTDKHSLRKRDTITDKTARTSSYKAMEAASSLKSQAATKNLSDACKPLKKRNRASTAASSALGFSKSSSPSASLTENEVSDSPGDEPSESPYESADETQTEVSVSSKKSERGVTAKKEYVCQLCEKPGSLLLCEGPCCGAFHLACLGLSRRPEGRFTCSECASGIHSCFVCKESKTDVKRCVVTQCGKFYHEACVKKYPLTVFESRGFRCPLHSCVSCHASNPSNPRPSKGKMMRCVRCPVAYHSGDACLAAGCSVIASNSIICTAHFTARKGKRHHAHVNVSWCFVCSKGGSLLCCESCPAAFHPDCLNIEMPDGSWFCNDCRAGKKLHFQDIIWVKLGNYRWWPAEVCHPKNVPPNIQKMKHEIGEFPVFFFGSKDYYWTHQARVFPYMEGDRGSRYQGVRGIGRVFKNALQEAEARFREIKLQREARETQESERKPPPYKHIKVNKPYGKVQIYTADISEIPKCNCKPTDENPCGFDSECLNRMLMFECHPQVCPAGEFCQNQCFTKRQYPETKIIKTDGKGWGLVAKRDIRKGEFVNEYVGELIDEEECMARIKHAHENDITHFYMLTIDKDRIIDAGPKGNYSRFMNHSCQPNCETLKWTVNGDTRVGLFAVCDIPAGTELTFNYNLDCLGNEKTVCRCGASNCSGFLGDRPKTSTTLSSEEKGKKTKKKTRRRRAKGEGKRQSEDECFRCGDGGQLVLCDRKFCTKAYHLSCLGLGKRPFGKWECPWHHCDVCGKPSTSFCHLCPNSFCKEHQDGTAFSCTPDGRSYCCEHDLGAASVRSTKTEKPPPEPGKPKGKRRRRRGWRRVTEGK
Sequence of NSD2 (E1099K) (O96028 whole entry E1099K): as the sequence (O96028 whole entry) above, with E1099K counted along it

| Structure (SMILES) | loss in cellular potency relative to 1 ([5]; HeLa H3K27me3 MOA assay) | PPB [6] [% bound] | PPB [7] [% bound] | PPB [8] [% bound] | PPB [9] [% bound] | LiPE (lipophilic efficiency = pEC50 – cLogP) [5] | other results |
| --- | --- | --- | --- | --- | --- | --- | --- |
| CN1C(=O)[C@@]23C[C@]4([C@]56C[C@@]78SS[C@@](CO)(C(=O)N7[C@H]5Nc5ccccc56)N(C)C8=O)c5ccccc5N[C@@H]4N2C(=O)[C@]1(CO)SS3 [Chaetocin, reference compound] | – | – | – | – | – | – | IC50 [1]: 218 nM; IC50 [2]: 125 nM; IC50 [3]: 70.5 nM; IC50 [4]: 4740 nM |
| COc1cc(C)[nH]c(=O)c1CNC(=O)c1c(C)n([C@H](C)C2CCN(C(=O)C(C)C)CC2)c2ccccc12 [compound 4, (R)-1-(1-(1-Isobutyrylpiperidin-4-yl)ethyl)-N-((4-methoxy-6-methyl-2-oxo-1,2-dihydropyridin-3-yl)methyl)-2-methyl-1H-indole-3-carboxamide] | approximately 5 fold | – | – | – | – | – | – |
| COc1cc(C)[nH]c(=O)c1CNC(=O)c1c(C)n([C@H](C)C2CCN(C(=O)OC(C)C)CC2)c2ccccc12 [compound 5, Isopropyl (R)-4-(1-(3-(((4-Methoxy-6-methyl-2-oxo-1,2-dihydropyridin-3-yl)methyl)carbamoyl)-2-methyl-1H-indol-1-yl)ethyl)piperidine-1-carboxylate] | ~2 fold | – | – | – | – | – | – |
| COc1cc(C)[nH]c(=O)c1CNC(=O)c1c(C)n([C@H](C)C2CCN(C(=O)N(C)C)CC2)c2ccccc12 [compound 6, (R)-1-(1-(1-(Dimethylcarbamoyl)piperidin-4-yl)ethyl)-N-((4-methoxy-6-methyl-2-oxo-1,2-dihydropyridin-3-yl)methyl)-2-methyl-1H-indole-3-carboxamide] | ~11 fold | – | – | – | – | – | – |
| COc1cc(C)[nH]c(=O)c1CNC(=O)c1c(C)n([C@H](C)C2CCN(CCC(F)(F)F)CC2)c2ccccc12 [compound 9, (R)-N-((4-Methoxy-6-methyl-2-oxo-1,2-dihydropyridin-3-yl)methyl)-2-methyl-1-(1-(1-(3,3,3-trifluoropropyl)piperidin-4-yl)ethyl)-1H-indole-3-carboxamide] | – | 99.7 | 97.4 | 96.3 | 95.9 | 3.1 | improvement in cellular potency relative to piperidine 2 ([5]; HeLa H3K27me3 MOA assay): over 3 fold |
| COc1cc(C)[nH]c(=O)c1CNC(=O)c1c(C)n([C@H](C)C2CCN(CC(C)(F)F)CC2)c2ccccc12 [compound 10, (R)-1-(1-(1-(2,2-Difluoropropyl)piperidin-4-yl)ethyl)-N-((4-methoxy-6-methyl-2-oxo-1,2-dihydropyridin-3-yl)methyl)-2-methyl-1H-indole-3-carboxamide] | – | 99.4 | 92.4 | 93.6 | 94.7 | 4.0 | Clint [10]: 193 μL/min/mg protein; microsomal CLint [10]: > 100 µL/min/mg; potency in mutated EZH2 C663S (versus EZH2) [11]: decreased; gain in cellular potency over n-trifluoropropyl analogue 9 ([5]; HeLa H3K27me3 MOA assay): 10 fold |
| COc1cc(C)[nH]c(=O)c1CNC(=O)c1c(C)n([C@H](C)C2CCN(CC(F)F)CC2)c2ccccc12 [compound 12, (R)-1-(1-(1-(2,2-Difluoroethyl)piperidin-4-yl)ethyl)-N-((4-methoxy-6-methyl-2-oxo-1,2-dihydropyridin-3-yl)methyl)-2-methyl-1H-indole-3-carboxamide] | – | 97.8 | 83.1 | 64.3 | 83.3 | 4.2 | Clint [10]: 131 μL/min/mg protein; microsomal CLint [10]: > 100 µL/min/mg |
